Converted amounts (≈) assume the structure as drawn. “And” between values parts separate entries of the source, which are not always exact repeats. Identical values can stand only once. Like-named read-outs stand apart in the source and are kept apart here.
How the values were obtained:
P. aeruginosa = experiment: Checkerboard FIC assay, BisEDT with CF agents (Example 10); assay type: cell-based, Pseudomonas aeruginosa; conditions: for MICB: Meropenem MIC in combination with BisEDT
[1] = test system: Burkholderia cepacia complex; experiment: as above; assay type: cell-based, Burkholderia spp.
[2] = test system: Enterococcus spp. (E. faecalis, E. faecium); experiment: Broth microdilution MIC (Example 11); assay type: cell-based; conditions: VRE, VRE
[3] = test system: beta-hemolytic streptococci (S. pyogenes, S. agalactiae); experiment: Broth microdilution MIC (Example 11); assay type: cell-based, Streptococcus pyogenes, Streptococcus agalactiae
Escherichia coli = conditions: E. coli MMX 102 (ATCC 25922); cited from earlier work
Pseudomonas aeruginosa = conditions: P. aeruginosa MMX 103 (ATCC 27853); cited from earlier work
[4] = test system: S. pneumoniae (pneumococci); conditions: S. pneumoniae MMX 6837 (ATCC 49619); cited from earlier work
Candida spp. [5] = experiment: Broth microdilution MIC, yeast (Example 13), group statement and QC; assay type: cell-based; conditions: C. parapsilosis ATCC 22019, comparators, single value
Candida krusei [6] = experiment: Broth microdilution MIC, yeast (Example 13); assay type: cell-based; conditions: C. krusei ATCC 6258 (QC, Table 110), comparators, single value
Aspergillus spp. [7] = experiment: Broth microdilution MIC/MEC, mold (Example 13); assay type: cell-based
E. coli ATCC 25922 = experiment: Broth microdilution MIC, QC organism (Example 13, Table 110); assay type: cell-based, Escherichia coli
Description: (§1) MECs were only reported where observed.

S. aureus ATCC 29213 = experiment: as above; assay type: cell-based, Staphylococcus aureus
Description: as §1

Candida spp. [8] = conditions: C. parapsilosis ATCC 22019, CLSI established QC range, cited from earlier work
Candida krusei [9] = conditions: C. krusei ATCC 6258, CLSI established QC range, cited from earlier work
Aspergillus spp. [10] = conditions: cited from earlier work
[11] = test system: Candida spp. (C. parapsilosis, C. albicans, C. glabrata, C. tropicalis); conditions: C. parapsilosis MMX 2323 (ATCC 22019), cited from earlier work
[12] = test system: Staphylococcus aureus (MRSA); conditions: S. aureus MMX 101 (ATCC 29213); cited from earlier work
[13] = P. aeruginosa 6322, Meropenem in combination with BisEDT, checkerboard rows C-G

C[C@@H](O)[C@H]1C(=O)N2C(C(=O)O)=C(S[C@@H]3CN[C@H](C(=O)N(C)C)C3)[C@H](C)[C@H]12 [Meropenem, reference compound]
FICB (P. aeruginosa; [13]): 1
MICB (Drug B concentration in combination) (P. aeruginosa; [13]): 16 µg/mL
FICB (P. aeruginosa; P. aeruginosa 8798, Meropenem FIC in combination with BisEDT, per checkerboard row): 1
MICB (P. aeruginosa; P. aeruginosa 8798, per checkerboard row): 32 µg/mL
FICB (P. aeruginosa; P. aeruginosa 9108, Meropenem FIC in combination with BisEDT, per checkerboard row): 1
MICB (P. aeruginosa; P. aeruginosa 9108, per checkerboard row): 1 µg/mL
FICB ([1]; B. cenocepacia 548, FIC of Meropenem in combination with BisEDT): 1
MICB ([1]; B. cenocepacia 548, MIC of Meropenem in combination with BisEDT): 4 µg/mL
FICB ([1]; B. cenocepacia 813, FIC of Meropenem in combination with BisEDT): 1
FICB ([1]; B. cepacia 546, Meropenem FIC in combination with BisEDT, per checkerboard row): 1 and 2
MICB ([1]; B. cepacia 546, Meropenem MIC in combination with BisEDT, per checkerboard row): 4 µg/mL and 8 µg/mL
FICB ([1]; B. cepacia 1793, Meropenem FIC in combination with BisEDT, per checkerboard row): 2 and 4
MICB ([1]; B. cepacia 1793, Meropenem MIC in combination with BisEDT, per checkerboard row): 8 µg/mL and 16 µg/mL
MICB ([1]; B. multivorans 1795, MIC of Meropenem in combination with BisEDT): 4 µg/mL
MIC ([1]; B. multivorans 1795, Meropenem alone, panel with BisEDT, read-out: Drug B MIC): 4 µg/mL
MIC ([2]; Enterococcus faecium, E. faecium MMX 485, vanA, LevR, CipR, EryR, read-out: MIC): > 64 µg/mL
MIC ([3]; S. agalactiae MMX 3741, ERY^R CC^R, read-out: MIC): 0.03 µg/mL (≈ 0.0782 µM)
MIC ([3]; S. agalactiae MMX 3743, ERY^R CC^R, read-out: MIC): 0.06 µg/mL (≈ 0.156 µM)
MIC ([3]; S. agalactiae MMX 4077, ERY^R CC^R, read-out: MIC): 0.06 µg/mL (≈ 0.156 µM)
MIC ([3]; S. agalactiae MMX 4079, ERY^R CC^R Pen^R MEM^R, read-out: MIC): 8 µg/mL (≈ 20.9 µM)
MIC ([3]; S. agalactiae MMX 4086, ERY^R CC^R, read-out: MIC): 0.06 µg/mL (≈ 0.156 µM)
CLSI QC range (MIC) (Escherichia coli): (0.008-0.06) μg/mL
CLSI QC range (MIC) (Pseudomonas aeruginosa): (0.25-1)
MIC, CLSI QC range [4]: (0.06-0.25) μg/mL

C[C@@H](c1ncncc1F)[C@](O)(Cn1cncn1)c1ccc(F)cc1F [Voriconazole]
MIC 48 hr (Candida spp. [5]; 48 hr): 0.12 µg/mL (≈ 0.344 µM)
MIC 24 hr (Candida krusei [6]): 0.12 µg/mL (≈ 0.344 µM)
MIC 48 hr (Candida krusei [6]): 0.5 µg/mL (≈ 1.43 µM)
MIC 24 hr (Aspergillus spp. [7]; A. flavus ATCC 204304 (QC, Table 110)): 0.12 µg/mL (≈ 0.344 µM)
MIC 24 hr (Aspergillus spp. [7]; A. fumigatus ATCC MYA-3626 (QC, Table 110)): 0.25 µg/mL (≈ 0.716 µM)
MIC 24 hr (E. coli ATCC 25922): > 64 µg/mL
MIC 24 hr (S. aureus ATCC 29213): > 64 µg/mL
QC Range 24 hr (Candida spp. [8]): 0.015-0.12
QC Range 48 hr (Candida spp. [8]): 0.03-0.25
QC Range 24 hr (Candida krusei [9]): 0.06-0.5
QC Range 48 hr (Candida krusei [9]): 0.12-1
QC Range 48 hr (Aspergillus spp. [10]; A. flavus ATCC 204304, CLSI established QC range): 0.5-4
QC Range 48 hr (Aspergillus spp. [10]; A. fumigatus ATCC MYA-3626, CLSI established QC range): 0.25-1

OC(Cn1cncn1)(Cn1cncn1)c1ccc(F)cc1F [fluconazole, reference compound]
MIC 24 hr (Candida spp. [5]; 24 hr): 1 µg/mL (≈ 3.27 µM)
MIC 24 hr (Candida krusei [6]): 16 µg/mL (≈ 52.2 µM)
MIC 48 hr (Candida krusei [6]): 32 µg/mL (≈ 104 µM)
activity (Aspergillus spp. [7]; Aspergillus spp.): inactive
MIC 24 hr (E. coli ATCC 25922): > 64 µg/mL
MIC 24 hr (S. aureus ATCC 29213): > 64 µg/mL
MIC, CLSI QC range ([11]; 24 hr): 0.5 to 4 µg/mL
MIC, CLSI QC range ([11]; 48 hr): 1 to 4 µg/mL
QC Range 24 hr (Candida spp. [8]): 0.5-4
QC Range 48 hr (Candida spp. [8]): 1-4
QC Range 24 hr (Candida krusei [9]): 8-64
QC Range 48 hr (Candida krusei [9]): 16-128

CN[C@H](CC(C)C)C(=O)N[C@H]1C(=O)N[C@@H](CC(N)=O)C(=O)N[C@H]2C(=O)N[C@H]3C(=O)N[C@H](C(=O)N[C@H](C(=O)O)c4cc(O)cc(O)c4-c4cc3ccc4O)[C@H](O)c3ccc(c(Cl)c3)Oc3cc2cc(c3O[C@@H]2O[C@H](CO)[C@@H](O)[C@H](O)[C@H]2O[C@H]2C[C@](C)(N)[C@H](O)[C@H](C)O2)Oc2ccc(cc2Cl)[C@H]1O [vancomycin, reference compound]
MIC ([2]; E. faecalis MMX 8961, LevR, CipR, EryR): >64 µg/mL
MIC ([2]; E. faecalis MMX 8962, LevR, CipR, EryR): >64 µg/mL
MIC ([2]; E. faecium MMX 485, vanA, LevR, CipR, EryR): >64 µg/mL
MIC ([2]; Enterococcus faecalis): > 64 µg/mL
MIC ([2]; Enterococcus faecium): > 64 µg/mL
MIC ([3]; S. agalactiae MMX 3741, ERY^R CC^R): 0.5 µg/mL (≈ 0.345 µM)
MIC ([3]; S. agalactiae MMX 3743, ERY^R CC^R): 0.5 µg/mL (≈ 0.345 µM)
MIC ([3]; S. agalactiae MMX 4077, ERY^R CC^R): 0.5 µg/mL (≈ 0.345 µM)
MIC ([3]; S. agalactiae MMX 4079, ERY^R CC^R Pen^R MEM^R): 2 µg/mL (≈ 1.38 µM)
MIC ([3]; S. agalactiae MMX 4086, ERY^R CC^R): 1 µg/mL (≈ 0.69 µM)
CLSI QC range (MIC) [12]: (0.5-2) μg/mL
MIC, CLSI QC range [4]: (0.12-0.5) μg/mL
